Measurements as given in PubChem BioAssay (NCI).
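96-well plates; 48 h exposure; 5 concentrations. Endpoints by linear interpolation between flanking doses. Not reached: highest tested concentration assigned. GI50: concentration for 50% inhibition of growth. TGI: concentration producing complete growth inhibition.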

How the values were obtained:
Assay in all cases: NCI anticancer screen, dose series, 48 h
KM12 colon = tested on: KM12 colon
HL-60(TB) leukemia = tested on: HL-60(TB) leukemia
HT29 colon = tested on: HT29 colon
COLO 205 colon = tested on: COLO 205 colon
CAKI-1 renal = tested on: CAKI-1 renal
786-0 renal = tested on: 786-0 renal
OVCAR-4 ovarian = tested on: OVCAR-4 ovarian
HCT-116 colon = tested on: HCT-116 colon
SR leukemia = tested on: SR leukemia
MCF7 breast = tested on: MCF7 breast
SF-268 CNS = tested on: SF-268 CNS
SF-539 CNS = tested on: SF-539 CNS
UO-31 renal = tested on: UO-31 renal
RPMI-8226 leukemia = tested on: RPMI-8226 leukemia
OVCAR-5 ovarian = tested on: OVCAR-5 ovarian
TK-10 renal = tested on: TK-10 renal
SN12C renal = tested on: SN12C renal
OVCAR-3 ovarian = tested on: OVCAR-3 ovarian
M14 melanoma = tested on: M14 melanoma
BT-549 breast = tested on: BT-549 breast
ACHN renal = tested on: ACHN renal
MALME-3M melanoma = tested on: MALME-3M melanoma
OVCAR-8 ovarian = tested on: OVCAR-8 ovarian
U251 CNS = tested on: U251 CNS
SK-MEL-2 melanoma = tested on: SK-MEL-2 melanoma
A549 NSCLC = tested on: A549 NSCLC
NCI-H226 lung = tested on: NCI-H226 lung
UACC-257 melanoma = tested on: UACC-257 melanoma
IGROV1 ovarian = tested on: IGROV1 ovarian
SW-620 colon = tested on: SW-620 colon
NCI-H522 lung = tested on: NCI-H522 lung
DU-145 prostate = tested on: DU-145 prostate
UACC-62 melanoma = tested on: UACC-62 melanoma
MDA-MB-435 = tested on: MDA-MB-435
HOP-62 NSCLC = tested on: HOP-62 NSCLC
NCI-H460 lung = tested on: NCI-H460 lung
HCT-15 colon = tested on: HCT-15 colon
SK-MEL-28 melanoma = tested on: SK-MEL-28 melanoma
NCI-H23 lung = tested on: NCI-H23 lung
HOP-92 NSCLC = tested on: HOP-92 NSCLC
A498 renal = tested on: A498 renal
T-47D breast = tested on: T-47D breast
NCI/ADR-RES ovarian = tested on: NCI/ADR-RES ovarian
SK-OV-3 ovarian = tested on: SK-OV-3 ovarian
MOLT-4 leukemia = tested on: MOLT-4 leukemia
SF-295 CNS = tested on: SF-295 CNS
SK-MEL-5 melanoma = tested on: SK-MEL-5 melanoma
SNB-19 CNS = tested on: SNB-19 CNS
PC-3 prostate = tested on: PC-3 prostate
EKVX NSCLC = tested on: EKVX NSCLC
HS 578T breast = tested on: HS 578T breast
K-562 leukemia = tested on: K-562 leukemia
MDA-MB-231 breast = tested on: MDA-MB-231 breast
SNB-75 CNS = tested on: SNB-75 CNS
CCRF-CEM leukemia = tested on: CCRF-CEM leukemia
HCC-2998 colon = tested on: HCC-2998 colon
RXF 393 renal = tested on: RXF 393 renal
LOX IMVI melanoma = tested on: LOX IMVI melanoma

## O=C1NC2O[C@H](CNC(=O)c3cc(Br)c[nH]3)CC2(O)N1 (mixture of isomers)
KM12 colon
  TGI: > 100 µM
HL-60(TB) leukemia
  TGI: > 100 µM
HT29 colon
  TGI: > 100 µM
COLO 205 colon
  TGI: > 100 µM
CAKI-1 renal
  TGI: > 100 µM
786-0 renal
  TGI: > 100 µM
OVCAR-4 ovarian
  TGI: > 100 µM
HCT-116 colon
  TGI: > 100 µM
SR leukemia
  TGI: > 100 µM
MCF7 breast
  TGI: > 100 µM
SF-268 CNS
  TGI: > 100 µM
SF-539 CNS
  TGI: > 100 µM
UO-31 renal
  TGI: > 100 µM
RPMI-8226 leukemia
  TGI: > 100 µM
OVCAR-5 ovarian
  TGI: > 100 µM
TK-10 renal
  TGI: > 100 µM
SN12C renal
  TGI: > 100 µM
OVCAR-3 ovarian
  TGI: > 100 µM
M14 melanoma
  TGI: > 100 µM
BT-549 breast
  TGI: > 100 µM
ACHN renal
  TGI: > 100 µM
MALME-3M melanoma
  TGI: > 100 µM
OVCAR-8 ovarian
  TGI: > 100 µM
U251 CNS
  TGI: > 100 µM
SK-MEL-2 melanoma
  TGI: > 100 µM
A549 NSCLC
  TGI: > 100 µM
NCI-H226 lung
  TGI: > 100 µM
UACC-257 melanoma
  TGI: > 100 µM
IGROV1 ovarian
  TGI: > 100 µM
SW-620 colon
  TGI: > 100 µM
NCI-H522 lung
  TGI: > 100 µM
DU-145 prostate
  TGI: > 100 µM
UACC-62 melanoma
  TGI: > 100 µM
MDA-MB-435
  TGI: > 100 µM
HOP-62 NSCLC
  TGI: > 100 µM
NCI-H460 lung
  TGI: > 100 µM
HCT-15 colon
  TGI: > 100 µM
SK-MEL-28 melanoma
  TGI: > 100 µM
NCI-H23 lung
  TGI: > 100 µM
HOP-92 NSCLC
  TGI: > 100 µM
A498 renal
  TGI: > 100 µM
T-47D breast
  TGI: > 100 µM
NCI/ADR-RES ovarian
  TGI: > 100 µM
SK-OV-3 ovarian
  TGI: > 100 µM
MOLT-4 leukemia
  TGI: > 100 µM
SF-295 CNS
  TGI: > 100 µM
SK-MEL-5 melanoma
  TGI: > 100 µM
SNB-19 CNS
  TGI: > 100 µM
PC-3 prostate
  TGI: > 100 µM
EKVX NSCLC
  TGI: > 100 µM
HS 578T breast
  TGI: > 100 µM
K-562 leukemia
  TGI: > 100 µM
MDA-MB-231 breast
  TGI: > 100 µM
SNB-75 CNS
  TGI: > 100 µM

## NNC(=O)c1c(SCc2ccccc2)nc2c3ccccc3ccn12
KM12 colon
  TGI: > 100 µM
HL-60(TB) leukemia
  TGI: 29.4 µM
HT29 colon
  TGI: 35.3 µM
COLO 205 colon
  TGI: > 100 µM
CAKI-1 renal
  TGI: 87.9 µM
OVCAR-4 ovarian
  TGI: 68.6 µM
MCF7 breast
  TGI: > 100 µM
SF-268 CNS
  TGI: > 100 µM
SF-539 CNS
  TGI: > 100 µM
UO-31 renal
  TGI: 66.5 µM
OVCAR-5 ovarian
  TGI: 54.8 µM
TK-10 renal
  TGI: > 100 µM
CCRF-CEM leukemia
  TGI: 22.1 µM
SN12C renal
  TGI: > 100 µM
OVCAR-3 ovarian
  TGI: 16 µM
HCC-2998 colon
  TGI: > 100 µM
M14 melanoma
  TGI: 41.2 µM
BT-549 breast
  TGI: 70.2 µM
ACHN renal
  TGI: > 100 µM
OVCAR-8 ovarian
  TGI: > 100 µM
U251 CNS
  TGI: > 100 µM
SK-MEL-2 melanoma
  TGI: > 100 µM
A549 NSCLC
  TGI: 70.3 µM
NCI-H226 lung
  TGI: > 100 µM
UACC-257 melanoma
  TGI: > 100 µM
RXF 393 renal
  TGI: 93.4 µM
IGROV1 ovarian
  TGI: 51.2 µM
SW-620 colon
  TGI: > 100 µM
NCI-H522 lung
  TGI: 37.3 µM
DU-145 prostate
  TGI: > 100 µM
UACC-62 melanoma
  TGI: 29.6 µM
MDA-MB-435
  TGI: > 100 µM
HOP-62 NSCLC
  TGI: > 100 µM
NCI-H460 lung
  TGI: 28 µM
HCT-15 colon
  TGI: 41.2 µM
SK-MEL-28 melanoma
  TGI: > 100 µM
NCI-H23 lung
  TGI: 52.6 µM
HOP-92 NSCLC
  TGI: 68.5 µM
A498 renal
  TGI: 46.6 µM
T-47D breast
  TGI: 72.1 µM
NCI/ADR-RES ovarian
  TGI: > 100 µM
SK-OV-3 ovarian
  TGI: > 100 µM
MOLT-4 leukemia
  TGI: 41.3 µM
SF-295 CNS
  TGI: > 100 µM
SK-MEL-5 melanoma
  TGI: 28.3 µM
SNB-19 CNS
  TGI: > 100 µM
PC-3 prostate
  TGI: > 100 µM
EKVX NSCLC
  TGI: > 100 µM
HS 578T breast
  TGI: > 100 µM
K-562 leukemia
  TGI: 57.9 µM
MDA-MB-231 breast
  TGI: 87.9 µM

## c1ccc(Sc2ccc(Cc3nc4cc5ccccc5cc4[nH]3)cc2)cc1
KM12 colon
  GI50: 2.21 µM
  TGI: 46.2 µM
HL-60(TB) leukemia
  GI50: 76.4 µM
  TGI: > 100 µM
HT29 colon
  GI50: 8.54 µM
  TGI: > 100 µM
COLO 205 colon
  GI50: 10.1 µM
  TGI: 30.9 µM
CAKI-1 renal
  GI50: 11.7 µM
  TGI: 48.8 µM
786-0 renal
  GI50: 4.77 µM
  TGI: > 63.8 µM
OVCAR-4 ovarian
  GI50: 57.5 µM
  TGI: > 100 µM
HCT-116 colon
  GI50: 2.98 µM
  TGI: 20.7 µM
SR leukemia
  GI50: 26 µM
  TGI: > 100 µM
MCF7 breast
  GI50: 6.73 µM
  TGI: > 100 µM
SF-268 CNS
  GI50: 8.48 µM
  TGI: > 100 µM
SF-539 CNS
  GI50: 1.34 µM
  TGI: 19.5 µM
UO-31 renal
  GI50: 20.7 µM
  TGI: > 100 µM
RPMI-8226 leukemia
  GI50: 3.77 µM
  TGI: 49.7 µM
OVCAR-5 ovarian
  GI50: 17.9 µM
  TGI: 98.8 µM
TK-10 renal
  GI50: 0.456 µM
  TGI: 18 µM
CCRF-CEM leukemia
  GI50: 1.42 µM
  TGI: > 59 µM
SN12C renal
  GI50: 16.8 µM
  TGI: 76.5 µM
OVCAR-3 ovarian
  GI50: 8.34 µM
  TGI: 39.8 µM
M14 melanoma
  GI50: 21 µM
  TGI: > 74.5 µM
BT-549 breast
  GI50: 16.4 µM
  TGI: > 84.9 µM
ACHN renal
  GI50: 13.2 µM
  TGI: > 75.1 µM
MALME-3M melanoma
  GI50: 9.93 µM
  TGI: 66.7 µM
OVCAR-8 ovarian
  GI50: 7.46 µM
  TGI: > 92.1 µM
U251 CNS
  GI50: 3.68 µM
  TGI: > 57.9 µM
SK-MEL-2 melanoma
  GI50: 53.6 µM
  TGI: > 100 µM
A549 NSCLC
  GI50: 2.33 µM
  TGI: > 61.4 µM
NCI-H226 lung
  GI50: 2.48 µM
  TGI: 26.9 µM
UACC-257 melanoma
  GI50: 5.33 µM
  TGI: 29.1 µM
RXF 393 renal
  GI50: 21.2 µM
  TGI: > 100 µM
IGROV1 ovarian
  GI50: 27.1 µM
  TGI: > 100 µM
SW-620 colon
  GI50: 8.38 µM
  TGI: > 67.6 µM
LOX IMVI melanoma
  GI50: 1.42 µM
  TGI: 29.1 µM
NCI-H522 lung
  GI50: 9.69 µM
  TGI: > 62.9 µM
DU-145 prostate
  GI50: 23 µM
  TGI: > 100 µM
UACC-62 melanoma
  GI50: 4.17 µM
  TGI: 27.2 µM
MDA-MB-435
  GI50: 11.9 µM
  TGI: > 67.7 µM
HOP-62 NSCLC
  GI50: 8.71 µM
  TGI: > 75.5 µM
NCI-H460 lung
  GI50: 0.21 µM
  TGI: > 100 µM
HCT-15 colon
  GI50: 0.205 µM
  TGI: 53.9 µM
SK-MEL-28 melanoma
  GI50: 37.7 µM
  TGI: > 100 µM
NCI-H23 lung
  GI50: 7.46 µM
  TGI: 36.1 µM
HOP-92 NSCLC
  GI50: 6.33 µM
  TGI: 66.3 µM
A498 renal
  GI50: 21.5 µM
  TGI: 57.8 µM
T-47D breast
  GI50: 5.2 µM
  TGI: 26.2 µM
NCI/ADR-RES ovarian
  GI50: 15.5 µM
  TGI: > 62.7 µM
SK-OV-3 ovarian
  GI50: 3.27 µM
  TGI: > 24.8 µM
MOLT-4 leukemia
  GI50: 8.18 µM
  TGI: > 100 µM
SF-295 CNS
  GI50: 2.65 µM
  TGI: 34.7 µM
SK-MEL-5 melanoma
  GI50: 2.88 µM
  TGI: 18.4 µM
SNB-19 CNS
  GI50: 8.89 µM
  TGI: > 100 µM
PC-3 prostate
  GI50: 4.56 µM
  TGI: > 64.3 µM
EKVX NSCLC
  GI50: 12.5 µM
  TGI: > 100 µM
HS 578T breast
  GI50: 17.7 µM
  TGI: 91.5 µM
K-562 leukemia
  GI50: 0.279 µM
  TGI: > 47.8 µM
MDA-MB-231 breast
  GI50: 3.31 µM
  TGI: 29.9 µM
SNB-75 CNS
  GI50: > 66.5 µM
  TGI: > 100 µM
